The subject of series [1] is NSCLC cell lines H1299, A549, H460 and colon cancer cell line SW480. In words: Cell survival assay (crystal violet), screening. The series is classed as cell-based, human. As to conditions: 50 and 100 μM, 3 days, all cancer cell lines tested. The method, then:
Typically, the small molecule compounds of the present invention were dissolved in DMSO at a concentration of 30 mM. The small molecule compounds were then tested under cell culture conditions at different concentrations ranging from 0, 10, 30, 50, to 100 uM. To determine cell survival after treatment, the cells were incubated with the small molecule compounds in 6-well plates for about 3 days. After removal of the cell culture medium, 1-ml of 0.5% crystal violet solution (prepared in 20% ethanol and 20% methanol) was added to stain the cells for 5 min. Then the crystal violet solution was rinsed clean with tap water. Cell survival was estimated based on the density of crystal stained plates.
Cancer cell lines were plated in 6-well plates as described, and incubated with 50, and 100 μM of each compound (stocks were dissolved in DMSO at 30 mM) for 3 days. […] Apoptosis analysis was also carried out by using flow cytometry and the results were consistent (data not shown). Therefore, using the rational design design-screen approach described herein, additional small molecule compound, FN1-8, inhibiting GLI3 transcription activation domain (TAF-binding domain) was identified.

Series [2] in a line: Body weight of mice after in vivo treatment. Further details: species or system mouse. The following applies: three weeks after tumor inoculation and treatment. The method, then:
As one preliminary in vivo toxicity study of FN1-8, it was examined if there was loss of body weight in the mice after the FN1-8 treatment. Three weeks after the initial tumor inoculation and the treatment as described in the previous examples, body weights of DMSO control group (n=11) and FN1-8 treated group (n=8) were measured using a scale.

Series [3] deals with Dvl-3 and cytosolic β-catenin in HT29 tumor. In words: Western blot of cytosolic proteins from xenograft tumors. The series is classed as in vivo, mouse. The following applies: HT29 xenograft tumor (negative control). On the procedure: (§1) To examine whether the lead compound FN1-8 suppressed tumor growth through inhibition of the Wnt signaling pathway in vivo, Western blot analysis of cytosolic proteins isolated from the H460 and HT29 xenograft tumors was performed. GAPDH served as a control. This Western Blot analysis was performed using a “pooled” tumor from two randomly selected mice of each group with reasonable size tumors.
In general terms: In western blotting, separated proteins are transferred to a membrane and probed.

For series [4], the system named is Dvl-3 and cytosolic beta-catenin in H460 tumor. The description is as above. The format is in vivo, mouse. On the procedure:
as §1

In series [5] the test system is GLI1-induced transcription in melanoma cell lines Malme-3M, A375, SK-Mel-2, SK-Mel-5. In words: 6xGLI BS-luciferase reporter assay. The series is classed as cell-based, human. The following applies: 20 μM, 16-20 hours. On the procedure:
One day before transfection, cells (1×10^5) were plated in 12-well plates with growth medium without antibiotics. When cells reached 80-90% of confluence they were co-transfected using 0.5 μg of each promoter construct in pGL3Basic vector and 0.025 μg pRL-TK Vector (Promega; Madison, Wis.) containing Renilla Luciferase as an internal control for the transformation efficiency. Lipofectamine 2000™ (Invitrogen Life Technologies) was used to mediate transfection for about 6 hours. […] Briefly, cells were lysed in a lysis buffer and Firefly and Renilla Luciferase activities in cells of each well, were measured using Dual-Luciferase Assay System (Promega) and an illuminometer. The measured luciferase activities were normalized to pRL-TK Vector activity and were given relative to the basal activity of empty pGL3-Basic Vector, which was set to unity. The data shown represent mean values (±S.D.). All measurements were performed in triplicate and repeated in at least three independent experiments. The human Wnt-2 promoter-luciferase construct, the human SOCS3 promoter-Luciferase construct and the human Gremlin promoter-luciferase construct were cloned and characterized in the laboratory of Dr. Jablons at the University of California, San Francisco (San Francisco, Calif.; He et al., Biochem Biophy Res Comm, 2003; and unpublished data). […]
On the technique in general: A reporter such as luciferase makes a cellular process visible.

Series [6] relates to melanoma cells Malme-3M, A375, G361, SK-Mel-2, SK-Mel-5, and SK-Mel-28. In words: MTS cell proliferation assay. The series is classed as cell-based, human. The following applies: 5 μM or 10 μM. The source says:
Another assay for determining the number of viable cells in proliferation or cytotoxicity assays is the MTS assay, a calorimetric method. MTS assay reagents are commercially available (Promega Corp., Madison, Wis.). The reagent contains a tetrazolium compound [3-(4,5-dimethylthiazol-2-yl)-5-(3-carboxymethoxyphenyl)-2-(4-sulfophenyl)-2H-tetrazolium, inner salt; MTS] and an electron coupling reagent (phenazine ethosulfate; PES). PES has enhanced chemical stability, which allows it to be combined with MTS to form a stable solution. The MTS tetrazolium compound (Owen.s reagent) is bioreduced by cells into a colored formazan product that is soluble in tissue culture medium. This conversion may be accomplished by NADPH or NADH produced by dehydrogenase enzymes in metabolically active cells. The quantity of formazan product as measured by the absorbance at 490 nm is directly proportional to the number of living cells in culture. Because the MTS formazan product is soluble in tissue culture medium, this assay requires fewer steps than procedures that use tetrazolium compounds such as MTT. The formazan product of MTT reduction is a crystalline precipitate that requires an additional step in the procedure to dissolve the crystals before recording absorbance readings at 570 nm. […]
For orientation: Tetrazolium dyes change colour on reduction, which living cells bring about.

“Also recorded” adds a separate entry of the source.

For the compound `O=C(NCCc1ccc(O)cc1)C1C(c2ccccc2)=NN(c2ccccc2)C1c1ccccc1` (stereo not drawn) [FN1-8, N-(2-(4-Hydroxyphenyl)ethyl)-1,3,5-triphenyl-4,5-dihydro-pyrazole-4-carboxyamide], in series [1], the cell killing result is on record as “Dramatic cell killing”. Further, the “loss of body weight” value in series [2] is “No noticeable loss of the body weight”. Besides, in series [3], the “Dvl-3 and cytosolic β-catenin levels in tumor” value is “no noticeable changes”. Further, the “Dvl-3 and cytosolic beta-catenin expression in tumor” value in series [4] is on record as “down-regulated”. Moreover, the “6xGLI BS-luciferase activity (GLI1-induced)” value in series [5] is “significantly reduced level of luciferase activity; also recorded: down-regulates GLI1-induced transcription activity”. Besides, in series [6], the “cell proliferation (MTS)” value is listed as “significantly inhibited cell proliferation”.

The values above are taken from patent US7714014B2, “Targeting GLI proteins in human cancer by small molecules” (The Regents of the University of California, priority 2005, dated 2010).
